In data set [1] the test system is ear of BALB/C mice. Briefly: Tolerance study: pro-inflammatory effect after single application to the mouse ear (ear thickness). Format: in vivo. The settings on record: single topical application, 0.01% in acetone, 20 μl. Here is the method:
The aim of the study is to evaluate the effect of a composition according to the invention on the pro-inflammatory activity associated with retinoids in general.
A single application of 20 μl of the test products was administered to the ear of the mice on day 1. Clinical observations and measurements of the mouse ear thickness, directly linked to inflammation, are performed from day 2 up to day 12.

Data set [2] can be described thus: Chemical stability of compound A in gel compositions (HPLC-UV assay). The settings on record: 4° C., room temperature and 40° C., up to 6 to 7 months. Format: physicochemical. The method, then: Compositions 1 and 2 according to Example 3 were placed under various stability conditions: 4° C., room temperature and 40° C., and were monitored for 6 to 7 months. At each stability checkpoint, compound A was assayed by HPLC-UV.

Data set [3] in a line: Chemical stability of compound A in oily phases (HPLC-UV). Format: physicochemical. The method, then:
The stability of the active agent was evaluated by liquid chromatography coupled to a UV detector (HPLC-UV).

Data set [4] in a line: Maximum solubility of compound A in various oily phases. Format: physicochemical.
Where [5] appears, read: in caprylic/capric acid triglycerides (Miglyol 812N).
Setting [6] is: in diisopropyl adipate (Crodamol DA).
Where [7] appears, read: in macrogol oleate (Labrafil M1944CS).
Setting [8] is: in propylene glycol dicaprylate/dicaprate (Myritol PC).
Setting [9] is: in propylene glycol monolaurate (Lauroglycol FCC).

Here are results for one compound from patent US10702604B2, “Lipid nanocapsules comprising a retinoid, nanodispersion and composition containing the same, process for preparing the same and use thereof in dermatology” (GALDERMA RESEARCH & DEVELOPMENT, priority 2012, dated 2020).

`CC(C)(C)c1cc(-c2cc(-c3ccc(C(=O)O)cc3)ccc2OCCO)ccc1N1CCCC1` [Compound A, 3″-tert-butyl-4′-(2-hydroxyethoxy)-4″-pyrrolidin-1-yl-[1,1′;3′,1″]-terphenyl-4-carboxylic acid]: the “Increase in the thickness of the mouse ear versus acetone alone” value in data set [1] was determined as 59%. Moreover, the “Chemical stability of compound A in the gel compositions” value in data set [2] is recorded as “chemically stable”. In addition, the Stability in data set [3] (setting [5]) is 6 months RT/40 °C; in data set [3] (setting [6]), 6 months RT/40 °C; in data set [3] (setting [7]) it was 6 months RT/40 °C; in data set [3] (in octyldodecanol (Eutanol G)), “Unstable”; in data set [3] (setting [8]), “Unstable”; in data set [3] (in propylene glycol monocaprylate (Capryol 90), RT = room temperature), 6 months RT/40 °C. Further, the Stability in data set [3] (setting [9]) and in data set [3] (in sweet almond oil) was 6 months RT/40 °C in each case. For the same compound, the Maximum solubility in data set [4] (setting [5]) amounted to 0.019 % m/m; in data set [4] (setting [6]), 0.297 % m/m; in data set [4] (setting [7]), 0.156 % m/m; in data set [4] (in mineral oil), 0.0001 % m/m; in data set [4] (in octyldodecanol (Eutanol G)), 0.137 % m/m; in data set [4] (setting [8]), 0.069 % m/m. For the same compound, the Maximum solubility in data set [4] (in propylene glycol monocaprylate (Capryol 90)) is reported as 0.802 % m/m; in data set [4] (setting [9]) it was 0.296 % m/m; in data set [4] (in sweet almond oil), 0.011 % m/m.
